Data on four molecules can be found in US8324284B2, “Migrastatin analogs and uses thereof” (Sloan-Kettering Institute for Cancer Research, priority 2003, dated 2012).

A value given as a limit tells only on which side of the number the result lay.

One may read the IC50 as the concentration that inhibits the measured activity by half. A lower IC50 goes with greater potency in that assay.

The test system of one series is 4T1 tumors. Nature of the series: 4T1 primary tumor growth in mice. Type of series: in vivo, mouse. The note with it: 10 mg/kg i.p. daily Day 7-25, final tumor size Day 28. The procedure: Female BALB/c mice (6-8 week old) were purchased from the Jackson Laboratory (Bar Harbor, Me.). All mice were housed at the Weill Medical College of Cornell University Animal Facilities in accordance with the Principles of Animal Care (NIH publication no. 85-23, revised 1985). 4T1 tumor cells (1×10^5) were injected subcutaneously into the abdominal mammary gland area of mice in 0.1 ml of a single-cell suspension in phosphate buffered saline (PBS) on Day 0. The dosage of tumor implantation was empirically determined to give rise to tumor of ˜10 mm in diameter in untreated wild type mice in 21-23 days. On Day 7, when the tumors averaged in size ˜4-5 mm in diameter, migrastatin analogs or control PBS saline were given every day by intraperitoneal injection at 10 mg/kg or 20 mg/kg per mouse until Day 25. On Day 28, the mice were sacrificed. […] Primary tumors were measured using electronic calipers on the day when the mice were sacrificed. […] Numbers of metastatic 4T1 cells in lung were determined by the clonogenic assay.^63 In brief, lungs were removed from each mouse on Day 28, finely minced and digested in 5 ml of enzyme cocktail containing 1×PBS and 1 mg/ml collagenase type IV for 2 hours at 37° C. on a platform rocker. […]
Effect of migrastatin analogs on 4T1 tumor cell growth (See, FIG. 5). […] On Day 28, primary tumors were measured using electronic calipers. […]

Series [1] has as its system 4T1 tumor lung metastasis. Put plainly: 4T1 tumor lung metastasis in syngeneic mice. Type of series: in vivo, mouse. The following applies: mean and standard deviation. The procedure:
Female BALB/c mice (6-8 week old) were purchased from the Jackson Laboratory (Bar Harbor, Me.). All mice were housed at the Weill Medical College of Cornell University Animal Facilities in accordance with the Principles of Animal Care (NIH publication no. 85-23, revised 1985). 4T1 tumor cells (1×10^5) were injected subcutaneously into the abdominal mammary gland area of mice in 0.1 ml of a single-cell suspension in phosphate buffered saline (PBS) on Day 0. The dosage of tumor implantation was empirically determined to give rise to tumor of ˜10 mm in diameter in untreated wild type mice in 21-23 days. On Day 7, when the tumors averaged in size ˜4-5 mm in diameter, migrastatin analogs or control PBS saline were given every day by intraperitoneal injection at 10 mg/kg or 20 mg/kg per mouse until Day 25. On Day 28, the mice were sacrificed. This regiment of migrastatin analogs was well tolerated with no signs of overt toxicity. Every group included five mice. Primary tumors were measured using electronic calipers on the day when the mice were sacrificed. Tumor size was the square root of the product of two perpendicular diameters. Numbers of metastatic 4T1 cells in lung were determined by the clonogenic assay.^63 In brief, lungs were removed from each mouse on Day 28, finely minced and digested in 5 ml of enzyme cocktail containing 1×PBS and 1 mg/ml collagenase type IV for 2 hours at 37° C. on a platform rocker. After incubation, samples were filtered through 70 uM nylon cell strainers and washed twice with PBS. Resulting cells were suspended and plated serially diluted in 10 cm tissue culture dishes in medium RPMI1640 containing 60 uM thioguanine for clonogenic growth. 6-Thioguanine-resistant tumor cells formed foci after 14 days, at which time they were fixed with methanol and stained with 0.03% methylene blue for counting.
Treatment 4T1 tumor lung metastasis in syngeneic mice with migrastatin analogs (See, FIG. 4). 4T1 tumor cells (10^5) were injected s.c. in the abdominal mammary gland with 0.1 ml of a single-cell suspension. Macroketone or macrolactam at 10 mg/kg or 20 mg/kg was given i.p. on Day 7 when the tumor size was about 5 mm in diameter, and every day until Day 25. On Day 28, the mice were sacrificed. Each group comprised five mice. Lung metastasis was measured by the 6-thiogunine clonogenic assay. The mean and standard deviation are presented. In the control group (daily PBS injection), there were 61300±18900 colonies.

Series [2] in a line: Metabolic stability in mouse plasma. Type of series: in vitro ADME. The note with it: mouse plasma/PBS, 37° C.; for stability (t1/2, mouse plasma), in words: 60 min of incubation, stable = intensity of HPLC signal unchanged. On the procedure: Mouse Plasma Stability Studies (Table 5): HPLC conditions: The sample is injected and separated using an Inertsil ODS3 6u 3×150 mm column with a mobile phase of MeCN and water (50% for migrastatin) at a flow of 0.4 mL/min, monitored at 220 nm at 0.02 AUFS (the retention time for migrastatin is ca. 4 min, the identity of this peak was confirmed by mass spectral analysis). Incubation and sample preparation conditions: A solution (ca. 30 mM) of chemical compound (Table 5) in DMSO is prepared. 2 μL of the solution is added to a mixture containing 200 μL of mouse plasma and 800 μL of PBS. The resulting solution is put into a water bath at 37° C., and 100 μL of sample is withdrawn at 10, 20, 30, 45, and 60 min. The precipitate is removed by centrifugation and 20 μL of the supernatant is injected onto the HPLC.

For a further series, the system named is 4T1 tumor cells. Nature of the series: Cell proliferation assay (MTT). The following applies: up to 20 μM, 48 h.
Series [3] has as its system 4T1 mouse breast tumor cells. Nature of the series: Wound-healing assay with 4T1 cells. The following applies: with serum, 200 μM, overnight. Type of series: cell-based. An excerpt:
In the wound healing assay, standard scratches (i.e., wounds) were made through a confluent 4T1 cell layer. In the absence of serum, cells would not migrate across the empty space created by application of the scratch. Upon addition of serum containing migration-enabling factors, migration of 4T1 cells across the scratch was induced. Exposure to these cells to inventive compounds allowed the evaluation of the cell migration inhibitory activity of these compounds.
Wound-Healing Assay (See FIG. 6). 4T1 mouse breast tumor cells in RPMI-1640 medium containing 10% fetal bovine serum (FBS) were seeded into wells of 24-multiwell plates (Becton-Dickinson). After cells grew to confluence, wounds were made with sterile pipette tips. Cells were washed with Phosphate Buffered Saline (PBS) and refreshed with growth medium containing different concentrations of chemical compounds. After overnight incubation at 37° C., cells were fixed and photographed.

For a further series, the system named is KYSE-520 cells. Put plainly: Wound healing (scratch) assay. Type of series: cell-based. The following applies: 28 to 30 h, tested 200, 100, 50, 25, 10 μM. The procedure:
The wound healing assay was performed based on the method described by Nakae et al. (Nakae et al., J. Antibiotics (2000), 53, 1130-1136). Briefly, adherent cells were grown in a suitable media to confluence (e.g. KYSE-520 cells in RPMI-1640 with 10% FBS). Cells were starved for 24 h in serum free media. A scratch (ca. 0.5 mm) was applied and the cell layer was washed twice with PBS after removal of the media. Fresh, serum free media with the test compound at the desired concentration was added and the cells were incubated for 28 to 30 h at 37° C., 5% CO2. The scratch size was compared to that observed for cells exposed to 100 μM Migrastatin. Test compounds associated with a scratch size equal to or larger than that observed for cells exposed to 100 μM Migrastatin were deemed to have cell migration inhibitory activity at least equal to Migrastatin.

The subject of another series is cell migration. Nature of the series: Chamber cell migration assay (preliminary). Type of series: cell-based. The note with it: 36 h, tested 200, 100, 50, 25, 10 μM. On the procedure: Cells were grown in an appropriate media to 70 to 80% confluence and incubated in serum and growth factor free media for 24 h. Cells were detached by trypsin treatment, collected by centrifugation and resuspended in serum free media to a final concentration of 150,000 cells/mL. 400 μL of the cell suspension were loaded into a fibronectin coated insert for 24 well multidishes. 750 μL fully supplemented media were applied to the compartment under the insert. To both chambers the inhibitor was added at the intended concentration and the plates were incubated for 36 h at 37° C., 5% CO2. […] The resulting CyQuant assay solution was transferred to the cavities of a 96 well microtiter plate and the fluorescence signal was recorded in an appropriate reader. The CyQuant dye forms a highly fluorescent complex with DNA, thus the fluorescence signal is proportional to the number of cells that migrated through the membrane in the presence of the test compound (N^inh). […] The positive control fluorescent reading correlates with the number of cells that migrate through the membrane in the absence of inhibitor (N^+). […] The negative control fluorescent reading correlates with the number of cells that migrate through the membrane through non-directed processes (N^−). The anti-migratory effect of a test compound is determined by the ratio (N^inh−N^−)/(N^+−N^−).

The test system of another series is HUVEC. Nature of the series: Tube formation assay. Type of series: cell-based, human. The note with it: minimal concentration causing definite disturbance of tube network; 16-18 h; tested 200, 100, 50, 25, 10 μM. The procedure: A protocol was designed based on the instructions from the provider (BD Bioscience, San Jose, Calif.). Briefly, wells of a 48 well culture dish were covert with 150 μL matrigel and the matrigel was gelatinized for 30 min at 37° C. A 80-90% confluent HUVEC (BD Bioscience, San Jose, Calif.) culture was trypsin treated, the detached cells were collected by centrifugation and resuspended in EGM-2 media (BD Bioscience, San Jose, Calif.). Cell concentration was adjusted to 100.000 cells/mL. 400 μL of the cell suspension were filled in the matrigel coated wells, and a solution of the inhibitor was added to the intended final concentration. The plates were incubated at 37° C. with 5% CO2 for 16-18 h. Media was removed, and the matrigel surface was washed twice with 500 μL PBS before cells were labeled with 250 μL […] Calcein AM (Pierce, Rockford, Ill.) in PBS for 30 min at 37° C. After two additional washing steps (500 μL PBS) cells were visualized under an inverted microscope. Fluorescence was excited at 488 nm and recorded at 538 nm. The minimum effect concentration was defined as the minimal inhibitor concentration that caused a definite disturbance of the complexity of the formed tube network.

Experimental for 4T1 tumor cells: Cell Proliferation Assay: 4×10^4 of 4T1 tumor cells in RPMI-1640 medium containing 10% FBS were seeded into wells of 96-multiwell plates (Becton-Dickinson) in the presence or absence of chemical compounds and then incubated at 37° C. for 48 h. An MTT kit (Cell Proliferation Kit I, Roche) (a colorimetric assay) was used to quantify cell proliferation and viability. The number of living cells, thus the total metabolic activity, directly correlates to the amount of purple formazan crystals formed (monitored by the absorbance).

On to `COC1C=CCCCCC(=O)CCC(C)=CC(C)C1O` (stereo not drawn) [macroketone (60), Macroketone], for which the “effect on tumor growth in mice” value with 4T1 tumors is “minor effect on tumor growth”. In addition, the “lung metastasis, colonies (6-thioguanine clonogenic assay)” value turned out to be 3875±2525 colonies in series [1] (10 mg/kg i.p. daily Day 7-25, Day 28) and 650±575 colonies in series [1] (20 mg/kg i.p. daily Day 7-25, Day 28).

Take `COC1C=CCCCCC(=O)OCC(C)=CC(C)C1O` (stereo not drawn) [macrolactone (48), Macrolactone]: in series [2], the “stability (t1/2, mouse plasma)” value was under 5 min and the “stability (t1/2, mouse plasma), in words” value was “hydrolyzed rapidly”. For the same molecule, the “cytotoxic or anti-proliferative effects on 4T1 cells” value in the series with 4T1 tumor cells is “did not have any cytotoxic or anti-proliferative effects up to 20 μM”. For the same molecule, in series [3], the “inhibition of 4T1 cell migration across the scratch” value is listed as “almost completely inhibited cell migration across the scratch”.

For `CO[C@H]1/C=C/CC/C=C/C(=O)O[C@H]([C@H](C)C(=O)CCCC2CC(=O)NC(=O)C2)/C(C)=C\[C@@H](C)[C@@H]1O` [migrastatin (1), Migrastatin], the Minimum effect concentration with KYSE-520 cells and in the series with HUVEC was 100 µM throughout. Also, the “stability (t1/2, mouse plasma), in words” value in series [2] is “stable^1”; in series [2] (listed as migrastatin) it was “completely inert toward lactone opening”. In the series with cell migration, half-maximal inhibition (IC50) required 200 µM. Also, the “inhibition of 4T1 cell migration across the scratch” value in series [3] is given as “not as great”.

As for N-Methyl-migrastatin, the Minimum effect concentration in the series with KYSE-520 cells is 100 µM; in the series with HUVEC it was 200 µM.
